From US11319322B2, “Substituted aryl ether compound, preparation method thereof, pharmaceutical composition and use thereof” (Xiamen University, priority 2017, dated 2022) come the findings set out here.

Holding throughout (assay type): cell-based
Assay [1] deals with LC-2/AD cells. Briefly: Growth inhibition of RET-positive non-small cell lung cancer cells LC-2/AD (MTS). The following applies: Homo sapiens, LC-2/AD non-small cell lung cancer cells, 48 h. As for the experimental part: Growth inhibitory activity of compounds on kinase RET-positive non-small cell lung cancer cells LC-2/AD
The specific test method is given as follows:
1) Medium: DMEM (Dulbecco's modified eagle medium) or RPMI 1640 (containing 10% fetal bovine serum, 100 μg/mL ampicillin, 100 μg/mL streptomycin).
2) Reagents: MTS reaction solution (containing 2 mg/mL of MTS [3-(4,5-dimethylthiazol-2-yl)-5-(3-carboxymethoxyphenyl)-2-(4-sulfophenyl)-2H-tetrazolium, inner Salt]; 100 μg/mL PES (phenazine […])).
3) Compound test: LC-2/AD cells (2×10^4 cells/well) were incubated into a 96-well culture plate, the volume of cell culture fluid was 90 μL, and then 10 μL of the compound at each gradient concentration was added (the highest concentration was 10 μM, which was diluted stepwise by ⅓, and 8 concentration points were set in total; the system contained 0.1% DMSO (dimethyl sulfoxide)). The cell plate with uniformly mixed compound was cultured in a cell culture incubator (37° C.; 5% CO2) for 48 h, then 20 μL of MTS reaction solution was added, uniformly mixed and incubated in the cell culture incubator (37° C.; 5% CO2) for 1-4 hr; OD values at 490 nm were measured by a microplate reader (VARIOSKAN FLASH, Thermo). Three parallels were set in each group of experiments, with 0.1% (a final concentration) DMSO as a negative control, and a medium without cells or compounds as a blank control. The cell growth inhibition rate was calculated by the following formula: Cell growth inhibition rate %=1−(ODexperimental group−ODblank group)/(ODnegative group−ODblank group)×100%
4) IC50 calculation: The semi-inhibitory concentration of the compound acting on cell growth was calculated using GradPad Prism 5 software according to the measured cell growth inhibition rate.

Assay [2] addresses T1, CCDC6-RET-BaF3 (Homo sapiens, UniProt P07949).
T1 construct: fused on or other part: Q16204 (Coiled-coil domain-containing protein 6)
Nature of the assay: Growth inhibition of CCDC6-RET-BaF3 cells stably transfected with kinase (MTS). The following applies: 48 h, read-out: CCDC6-RET (IC50/nM). The method in brief:
(§1)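 BaF3 cells stably expressing CCDC6-RET or KIF5B-RET, or parental BaF3, 2×10^4 cells/well, treated 48 h at 37 °C with 8-point 1:3 dilutions from 10 μM (0.1% DMSO). MTS/PES added 1–4 h, OD490 read; inhibition versus DMSO and blank gave IC50.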

Assay [3] deals with T2, KIF5B-RET-BaF3 (Homo sapiens, UniProt P07949).
T2 construct: fused on or other part: P33176 (Kinesin-1 heavy chain)
T2 sequence (P07949 whole entry, change not shown, the tested form may be a part): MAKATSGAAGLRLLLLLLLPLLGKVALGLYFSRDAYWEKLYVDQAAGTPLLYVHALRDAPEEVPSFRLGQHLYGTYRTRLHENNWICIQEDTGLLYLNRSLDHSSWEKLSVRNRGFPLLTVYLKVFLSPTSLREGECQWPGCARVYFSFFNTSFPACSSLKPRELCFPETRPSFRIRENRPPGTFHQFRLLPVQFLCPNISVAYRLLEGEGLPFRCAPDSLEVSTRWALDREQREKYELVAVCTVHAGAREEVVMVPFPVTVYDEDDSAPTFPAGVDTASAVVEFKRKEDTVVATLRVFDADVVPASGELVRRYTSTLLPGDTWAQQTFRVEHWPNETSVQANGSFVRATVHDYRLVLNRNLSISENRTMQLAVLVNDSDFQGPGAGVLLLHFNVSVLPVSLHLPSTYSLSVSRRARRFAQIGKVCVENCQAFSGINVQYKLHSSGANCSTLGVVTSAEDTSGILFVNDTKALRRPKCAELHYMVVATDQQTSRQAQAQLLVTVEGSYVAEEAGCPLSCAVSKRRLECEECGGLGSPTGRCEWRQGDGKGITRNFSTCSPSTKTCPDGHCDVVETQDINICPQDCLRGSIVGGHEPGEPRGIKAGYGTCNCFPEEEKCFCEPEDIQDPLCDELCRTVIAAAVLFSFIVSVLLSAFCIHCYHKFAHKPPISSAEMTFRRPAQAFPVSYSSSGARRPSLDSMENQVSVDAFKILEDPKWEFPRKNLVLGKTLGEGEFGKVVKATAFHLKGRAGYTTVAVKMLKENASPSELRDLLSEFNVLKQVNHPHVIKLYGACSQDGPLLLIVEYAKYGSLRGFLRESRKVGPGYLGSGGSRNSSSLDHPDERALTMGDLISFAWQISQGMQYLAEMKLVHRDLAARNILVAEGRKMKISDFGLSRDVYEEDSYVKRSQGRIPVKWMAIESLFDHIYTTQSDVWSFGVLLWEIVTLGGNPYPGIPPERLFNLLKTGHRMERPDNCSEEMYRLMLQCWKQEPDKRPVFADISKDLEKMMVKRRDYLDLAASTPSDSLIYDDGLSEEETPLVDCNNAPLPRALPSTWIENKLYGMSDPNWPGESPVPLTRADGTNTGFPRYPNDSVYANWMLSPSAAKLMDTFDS
Nature of the assay: Growth inhibition of KIF5B-RET-BaF3 cells stably transfected with kinase (MTS). The conditions noted are these: 48 h, read-out: KIF5B-RET (IC50/nM). The method in brief:
as §1

Assay [4] concerns wild-type BaF3. Nature of the assay: Growth inhibition of wild-type BaF3 cells, broad-spectrum toxicity (MTS). The following applies: Mus musculus, 48 h, read-out: WT Ba/F3 (IC50/nM). The method in brief: as §1

T1 sequence (P07949 whole entry, change not shown, the tested form may be a part): as above

`Cc1ccc(C(=O)Nc2ccc(CN3CCN(C)CC3)c(C(F)(F)F)c2)cc1Oc1nc(-c2cccnc2)nc2c1cnn2C` [II-m-1] showed an IC50 in assay [1] of 301 nM. Also, the values for the GI50 in assay [2] and in assay [3] were 35.2 nM and 8.28 nM, respectively.

The molecule `Cc1ccc(Oc2nc(-c3ccncc3)nc3nn(C)cc23)cc1C(=O)Nc1ccc(CN2CCN(C)CC2)c(C(F)(F)F)c1` [IV-n-2] had an IC50 in assay [1] of 1400 nM. In addition, the values for the GI50 in assay [2] and in assay [3] were 172 nM and 173 nM, respectively.

As to `Cc1ccc(Oc2nc(-c3ccncc3)nc3c2ncn3C)cc1C(=O)Nc1ccc(CN2CCN(C)CC2)c(C(F)(F)F)c1` [I-n-3], the IC50 in assay [1] stood at 818 nM. Further, the values for the GI50 in assay [2] and in assay [3] were 8.38 nM and 40.5 nM, respectively.

With `COc1cc2nccc(Oc3ccc(NC(=O)C4(C(=O)Nc5ccc(F)cc5)CC4)cc3)c2cc1OC` [Cabozantinib], in assay [1], the IC50 is 4150 nM. The results for the GI50 in assay [2] and in assay [3] were 226 nM and 302 nM, respectively.

With `CN1CCN(Cc2cc(NC(=O)c3cccc(Oc4nc(-c5ccncc5)nc5ccn(C)c45)c3)cc(C(F)(F)F)c2)CC1` [III-p-4], the GI50 in assay [2] came to 3230 nM; in assay [3], 3650 nM. Also, in assay [4], the IC50 was more than 10000 nM.

Consider `CN1CCN(Cc2ccc(C(=O)Nc3cc(Oc4nc(-c5ccc(O)cc5)nc5cc[nH]c45)ccc3Cl)cc2C(F)(F)F)CC1` [III-k-9], for which the results for the GI50 in assay [2] and in assay [3] were 1190 nM and 1490 nM, respectively. Besides, the IC50 in assay [4] was 1650 nM.

With `CN1CCN(Cc2ccc(NC(=O)c3cc(Oc4nc(-c5cccnc5)nc5cc[nH]c45)ccc3Cl)cc2C(F)(F)F)CC1` [III-o-1], the GI50 in assay [2] was 2150 nM; in assay [3], 1550 nM. Further, the IC50 in assay [4] stood at 1630 nM.

On to `CN1CCN(Cc2ccc(NC(=O)c3cccc(Oc4cc(-c5cccnc5)nc5[nH]ccc45)c3)cc2C(F)(F)F)CC1` [V-I-1], for which the GI50 in assay [2] and in assay [3] was 1460 nM in each case. The IC50 in assay [4] was determined as 2070 nM.

Take `CN1CCN(Cc2ccc(C(=O)Nc3cc(Oc4nc(-c5ccncc5)nc5[nH]ncc45)ccc3Cl)cc2C(F)(F)F)CC1` [II-k-4]: the GI50 in assay [2] is 37.7 nM; in assay [3], 104 nM. Besides, the IC50 in assay [4] was more than 10000 nM.

Turning to `CN1CCN(Cc2ccc(C(=O)Nc3cc(Oc4nc(-c5ccoc5)nc5cc[nH]c45)ccc3Cl)cc2C(F)(F)F)CC1` [III-k-5], the GI50 was found to be 1490 nM in assay [2] and 1920 nM in assay [3]. Moreover, the IC50 in assay [4] came out at 4360 nM.

Turning to `CN1CCN(Cc2ccc(NC(=O)c3cccc(Oc4cc(-c5ccncc5)nc5[nH]ccc45)c3)cc2C(F)(F)F)CC1` [V-I-2], the GI50 in assay [2] and in assay [3] was 169 nM throughout. In assay [4], the IC50 amounted to 3400 nM.

For the molecule `Cc1ccc(C(=O)Nc2ccc(CN3CCN(C)CC3)c(C(F)(F)F)c2)cc1Oc1ncnc2ccn(C)c12` [III-m-22], the GI50 in assay [2] amounted to 597 nM; in assay [3] it was 854 nM. In addition, the IC50 in assay [4] is more than 10000 nM.

For the molecule `Cc1ccc(Oc2nc(-c3cccnc3)nc3c2ncn3C)cc1C(=O)Nc1ccc(CN2CCN(C)CC2)c(C(F)(F)F)c1` [I-n-2], the GI50 in assay [2] was determined as 3210 nM; in assay [3] it was 3640 nM. In assay [4], the IC50 turned out to be 1610 nM.

As to `Cc1ccc(C(=O)Nc2ccc(CN3CCN(C)CC3)c(C(F)(F)F)c2)cc1Oc1nc(-c2ccc(Cl)cc2)nc2ccn(C)c12` [III-m-14], the GI50 turned out to be 2920 nM in assay [2] and 2720 nM in assay [3]. Also, the IC50 in assay [4] was 3190 nM.

In the case of `Cc1ccc(Oc2cc(-c3cccnc3)nc3[nH]ccc23)cc1C(=O)Nc1ccc(CN2CCN(C)CC2)c(C(F)(F)F)c1` [V-n-1], the GI50 in assay [2] is 2900 nM; in assay [3] it was 2120 nM. The IC50 in assay [4] is 2310 nM.

Consider `Cc1ccc(Oc2nc(-c3ccccc3)nc3c2ncn3C)cc1NC(=O)c1ccc(CN2CCN(C)CC2)c(C(F)(F)F)c1` [I-j-2], for which the values for the GI50 in assay [2] and in assay [3] were 2130 nM and 1580 nM, respectively. The IC50 in assay [4] came out at 2110 nM.

`Cc1ccc(C(=O)Nc2ccc(CN3CCN(C)CC3)c(C(F)(F)F)c2)cc1Oc1nc(-c2ccncc2)nc2[nH]ncc12` [II-m-21]: the results for the GI50 in assay [2] and in assay [3] were 73.4 nM and 240 nM, respectively. The IC50 in assay [4] came out at 4780 nM.

As to `CN1CCN(Cc2ccc(NC(=O)c3cccc(Oc4nc(-c5cccnc5)nc5ccsc45)c3)cc2C(F)(F)F)CC1` [VI-l-1], the GI50 in assay [2] is 2640 nM; in assay [3], 3220 nM. For the same molecule, in assay [4], the IC50 turned out to be 4620 nM.
